Results published in patent US9580418B2, “Bicyclic aromatic carboxamide compounds useful as Pim kinase inhibitors” (Incyte Corporation, priority 2014, dated 2017).

Assays:
pBAD in KMS.12.BM cells = assay: Pim pBAD signaling assay in KMS.12.BM cells (Example B); type: cell-based; conditions: Homo sapiens, 2.5 h incubation, pBAD ELISA
Protocol: KG-1A cells are purchased from ATCC (Manassas, Va.) and KMS.12.BM cells are purchased from NIBIO, JCRB cell bank (Tokyo, Japan) and maintained in the culture mediums recommended, RPMI, 10% FBS and IMDM 20% FBS (Mediatech, Manassas, Va.) respectively. To measure the pBAD inhibitory activity of the compounds, both cell lines are plated with the culture medium (1×10^6/well/100 μL for KG1A and 4×10^5 cells/well/in 100 μL for KMS12BM) into 96-well V bottom polypropylene plates (Matrix, Thermo Fisher, USA) and incubated 30 min. at 37° C. to normalize cell signaling from handling. Test compounds are added at an appropriate concentration range and further incubated for 2.5 h for KMS.12.BM cells and 4 h for KG1-A cells. Plates are centrifuged at 2000 RPM for 10 min. and supernatants aspirated. 100 μL lysis buffer with protease inhibitors (Cell Signaling Technologies, Danver, Mass., Sigma, St Louis Mo., EMD, USA) is added to the pellets, mixed well and set on ice for 30 min. Lysates are frozen overnight at −80° C. To measure the pBAD activity, a Cell Signaling ELISA kit (Cell Signaling Path Scan phosphor pBAD ELISA) is utilized. 50 μL of the lysate is tested per the ELISA protocol and the data analysis is performed by software on a SpectrMax5 plate reader (Molecular Devices, Sunnyvale, Calif.). IC50 determination is performed by fitting the curve of percent inhibition versus the log of the inhibitor concentration using the GraphPad Prism 5.0 software.

Pim-2 = Pim-2 (Homo sapiens (Human), UniProt Q9P1W9); assay: Pim-2 kinase assay (Pim enzyme assays, Example A); type: biochemical; conditions: 1 mM ATP, CREBtide peptide substrate; read-out: PIM2 IC50
Sequence of Pim-2 (Q9P1W9 whole entry): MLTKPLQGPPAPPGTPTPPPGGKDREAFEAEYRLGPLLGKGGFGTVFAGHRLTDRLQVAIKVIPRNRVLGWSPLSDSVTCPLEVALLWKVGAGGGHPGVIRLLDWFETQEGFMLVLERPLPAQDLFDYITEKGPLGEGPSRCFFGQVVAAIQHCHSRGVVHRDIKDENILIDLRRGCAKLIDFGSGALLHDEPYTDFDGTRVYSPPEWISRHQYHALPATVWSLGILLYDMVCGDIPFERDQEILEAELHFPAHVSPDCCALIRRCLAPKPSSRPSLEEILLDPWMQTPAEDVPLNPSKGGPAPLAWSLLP
Protocol: Pim-2 kinase assay-20 μL reactions were run in white 384 well polystyrene plates dotted with 0.8 μL compound/DMSO in the assay buffer (50 mM Tris, pH 7.5, 0.01% Tween-20, 5 mM mgCl2, 0.01% BSA, 5 mM DTT), containing 0.05 μM Fluorescein-labeled CREBtide peptide substrate (Invitrogen PV3508), 1 mM ATP, and 1 nM enzyme (Invitrogen PV3649) for 2 h at 25° C. Reactions were stopped by addition of 10 μL TR-FRET Dilution Buffer (Invitrogen PV3574) with 30 mM EDTA and 1.5 nM LanthaScreen Tb-CREB pSer133 antibody (Invitrogen PV3566). After 30 min. incubation at room temperature, plates were read on a PHERAstar FS plate reader (BMG Labtech).

Pim-3 = Pim-3 (Homo sapiens (Human), UniProt Q86V86); assay: Pim-3 kinase assay (Pim enzyme assays, Example A); type: biochemical; conditions: 1 mM ATP, BAD peptide substrate; read-out: PIM3 IC50
Protocol: (§1) Pim-1 and Pim-3 kinase assays-20 μL reactions were run in white 384 well polystyrene plates dotted with 0.8 μL compound/DMSO in the assay buffer (50 mM Tris, pH 7.5, 0.01% Tween-20, 5 mM mgCl2, 0.01% BSA, 5 mM DTT), containing 0.05 μM Biotin-labeled BAD peptide substrate (AnaSpec 62269), 1 mM ATP, and 2.5 pM (Pim-1, Invitrogen PV3503) or 1.25 pM (Pim-3, Millipore 14-738) enzyme for 1 h at 25° C. Reactions were stopped by addition of 10 μL STOP Buffer (150 mM Tris, pH=7.5, 150 mM NaCl, 75 mM EDTA, 0.01% Tween-20, 0.3% BSA,) supplemented with Phospho-Bad (Ser112) Antibody (Cell Signaling 9291) diluted 666-fold, and Streptavidin donor beads (PerkinElmer 6760002) along with Protein-A acceptor beads (PerkinElmer 6760137) at 15 μg/mL each. Supplementation of the STOP buffer with beads and stopping the reactions were done under reduced light. Prior to the stopping reactions STOP buffer with beads was preincubated for 1 h in the dark at room temperature. After stopping the reactions, plates were incubated for 1 h in the dark at room temperature before reading on a PHERAstar FS plate reader (BMG Labtech) under reduced light.

Pim-1 = Pim-1 (Homo sapiens (Human), UniProt P11309); assay: Pim-1 kinase assay (Pim enzyme assays, Example A); type: biochemical; conditions: 1 mM ATP, BAD peptide substrate; read-out: PIM1 IC50
Sequence of Pim-1 (P11309 whole entry): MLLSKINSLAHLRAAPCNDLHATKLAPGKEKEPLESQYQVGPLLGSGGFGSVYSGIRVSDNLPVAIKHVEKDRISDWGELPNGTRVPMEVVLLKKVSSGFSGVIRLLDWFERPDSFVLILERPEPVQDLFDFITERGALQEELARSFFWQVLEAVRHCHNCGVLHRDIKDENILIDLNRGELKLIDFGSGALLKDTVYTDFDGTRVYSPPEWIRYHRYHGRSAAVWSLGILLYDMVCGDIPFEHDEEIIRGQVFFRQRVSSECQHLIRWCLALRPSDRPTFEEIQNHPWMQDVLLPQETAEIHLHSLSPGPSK
Protocol: as §1

| Compound | IC50 (pBAD in KMS.12.BM cells) [nM] | IC50 (Pim-2) [nM] | IC50 (Pim-3) [nM] | IC50 (Pim-1) [nM] |
| --- | --- | --- | --- | --- |
| C[C@@H]1C[C@H](N)CN(c2ccncc2NC(=O)c2ccc3ccc(N4CCOCC4)cc3n2)C1 [Example 13, N-{4-[(3S,5R)-3-Amino-5-methylpiperidin-1-yl]pyridin-3-yl}-7-morpholin-4-ylquinoline-2-carboxamide] | ≤ 50 | ≤ 100 | ≤ 10 | ≤ 10 |
| C[C@H]1CN(c2ccncc2NC(=O)c2ccc3ccc(N4CCC5(CCOCC5)CC4)cc3n2)C[C@@H](N)[C@@H]1O [Example 14, N-{4-[(3R,4R,5S)-3-Amino-4-hydroxy-5-methylpiperidin-1-yl]pyridin-3-yl}-7-(3-oxa-9-azaspiro[5.5]undec-9-yl)quinoline-2-carboxamide] | 50 to 250 | ≤ 100 | ≤ 10 | ≤ 10 |
| COC1CCN(c2ccc3ccc(C(=O)Nc4cnccc4N4C[C@H](C)C[C@H](N)C4)nc3c2)CC1 [Example 25, N-{4-[(3S,5R)-3-Amino-5-methylpiperidin-1-yl]pyridin-3-yl}-7-(4-methoxypiperidin-1-yl)quinoline-2-carboxamide] | ≤ 50 | ≤ 100 | ≤ 10 | ≤ 10 |
| C[C@@H]1C[C@H](N)CN(c2ccncc2NC(=O)c2ccc3ccc(N4CCN(C)CC4)cc3n2)C1 [Example 19, N-{4-[(3S,5R)-3-Amino-5-methylpiperidin-1-yl]pyridin-3-yl}-7-(4-methylpiperazin-1-yl)quinoline-2-carboxamide] | 250 to 2000 | 100 to 1000 | ≤ 10 | ≤ 10 |
| C[C@H]1CN(c2ccncc2NC(=O)c2ccc3ccc(N4CCC(c5ccncc5)CC4)cc3n2)C[C@@H](N)[C@@H]1O [Example 20, N-{4-[(3R,4R,5S)-3-Amino-4-hydroxy-5-methylpiperidin-1-yl]pyridin-3-yl}-7-(4-pyridin-4-ylpiperidin-1-yl)quinoline-2-carboxamide] | 50 to 250 | ≤ 100 | ≤ 10 | ≤ 10 |
| C[C@@H]1C[C@H](N)CN(c2ccncc2NC(=O)c2ccc3ccc(N4CCC(O)CC4)cc3n2)C1 [Example 50, N-(4-((3S,5R)-3-Amino-5-methylpiperidin-1-yl)pyridin-3-yl)-7-(4-hydroxypiperidin-1-yl)quinoline-2-carboxamide] | ≤ 50 | ≤ 100 | ≤ 10 | ≤ 10 |
| C[C@@H]1C[C@H](N)CN(c2ccncc2NC(=O)c2ccc3ccc(-c4cnn(C)c4)cc3n2)C1 [Example 48, N-{4-[(3S,5R)-3-amino-5-methylpiperidin-1-yl]pyridin-3-yl}-7-(1-methyl-1H-pyrazol-4-yl)quinoline-2-carboxamide] | ≤ 50 | ≤ 100 | ≤ 10 | ≤ 10 |
| Cn1cc(-c2cnc3ccc(C(=O)Nc4cnccc4N4C[C@@H](N)[C@H](O)[C@@H](C5CC5)C4)nc3c2)cn1 [Example 39, N-{4-[(3R,4R,5S)-3-Amino-5-cyclopropyl-4-hydroxypiperidin-1-yl]pyridin-3-yl}-7-(1-methyl-1H-pyrazol-4-yl)-1,5-naphthyridine-2-carboxamide] | 50 to 250 | ≤ 100 | ≤ 10 | ≤ 10 |
| CC(C)c1cnc2ccc(C(=O)Nc3cnccc3N3C[C@@H](N)[C@H](O)[C@@H](C)C3)nc2c1 [Example 6] | ≤ 50 | ≤ 100 | ≤ 10 | ≤ 10 |
| N[C@@H]1CN(c2ccncc2NC(=O)c2ccc3ncc(-c4ccc(N5CCOCC5)nc4)cc3n2)C[C@H](C2CC2)[C@H]1O [Example 37, N-{4-[(3R,4R,5S)-3-Amino-5-cyclopropyl-4-hydroxypiperidin-1-yl]pyridin-3-yl}-7-(6-morpholin-4-ylpyridin-3-yl)-1,5-naphthyridine-2-carboxamide] | ≤ 50 | ≤ 100 | ≤ 10 | ≤ 10 |
